Laboratory results published in patent publication US10597388B2, “Pyridazinone herbicides” (FMC CORPORATION, priority 2014, dated 2020).
Like-named read-outs stand apart in the source and are kept apart here.

What was measured:
Experiment in all cases: Test A greenhouse herbicide test, pre- and postemergence
Format in all cases: in vivo
[1] = system: ragweed (common ragweed, Ambrosia elatior); conditions: Ambrosia artemisiifolia, 240 h; for pest or weed control at 125 g/ha: 125 g ai/ha; for pest or weed control at 500 g/ha: 500 g ai/ha, 0 to 100 scale
Procedure, shortened: (§1)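 Seeds in loam–sand blend received a preemergence directed soil spray; plants at 2–10 cm, one- to two-leaf stage, received postemergence sprays. Compounds in a non-phytotoxic solvent with surfactant. After about 10 d in a greenhouse, injury rated visually versus untreated controls on a 0–100 scale (100 = complete control).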

[2] = system: foxtail, giant (giant foxtail, Setaria faberii); conditions: Setaria faberi, 240 h; for pest or weed control at 125 g/ha: 125 g ai/ha; for pest or weed control at 500 g/ha: 500 g ai/ha, 0 to 100 scale
Procedure, shortened: as §1

[3] = system: pigweed (Amaranthus retroflexus); conditions: Amaranthus retroflexus, 240 h; for pest or weed control at 125 g/ha: 125 g ai/ha; for pest or weed control at 500 g/ha: 500 g ai/ha, 0 to 100 scale
Procedure, shortened: as §1

[4] = system: wheat (Triticum aestivum); conditions: Triticum aestivum, post-emergence, 240 h, Postemergence; for plant injury at 125 g/ha: 125 g ai/ha, visual rating after approx. 10 d, 0 to 100 scale (0 no effect, 100 complete control), read-out: Plant response rating, Wheat; for plant injury at 500 g/ha: 500 g ai/ha, 0 to 100 scale, 0 is no effect, 100 is complete control, read-out: Wheat plant response rating
Procedure, shortened: as §1

kochia (Kochia scoparia) = conditions: Bassia scoparia, 240 h; for pest or weed control at 125 g/ha: 125 g ai/ha; for pest or weed control at 500 g/ha: 500 g ai/ha, 0 to 100 scale
Procedure, shortened: as §1

[5] = post-emergence, Postemergence, visual rating after approx. 10 d, 0 to 100 scale (0 no effect, 100 complete control), read-out: Plant response rating, Ragweed
[6] = post-emergence, Postemergence, 0 is no effect, 100 is complete control, read-out: Ragweed plant response rating
[7] = pre-emergence, Preemergence, 0 to 100 scale where 0 is no effect and 100 is complete control, read-out: Ragweed plant response rating
[8] = pre-emergence, Preemergence, 0 no effect, 100 complete control, read-out: Plant response rating, Ragweed
[9] = post-emergence, Postemergence, visual rating after approx. 10 d, 0 to 100 scale (0 no effect, 100 complete control), read-out: Plant response rating, Foxtail, Giant
[10] = post-emergence, Postemergence, 0 is no effect, 100 is complete control, read-out: Foxtail, Giant plant response rating
[11] = pre-emergence, Preemergence, 0 to 100 scale where 0 is no effect and 100 is complete control, read-out: Foxtail, Giant plant response rating
[12] = pre-emergence, Preemergence, 0 no effect, 100 complete control, read-out: Plant response rating, Foxtail, Giant
[13] = post-emergence, Postemergence, visual rating after approx. 10 d, 0 to 100 scale (0 no effect, 100 complete control), read-out: Plant response rating, Pigweed
[14] = post-emergence, Postemergence, 0 is no effect, 100 is complete control, read-out: Pigweed plant response rating
[15] = pre-emergence, Preemergence, 0 to 100 scale where 0 is no effect and 100 is complete control, read-out: Pigweed plant response rating
[16] = pre-emergence, Preemergence, 0 no effect, 100 complete control, read-out: Plant response rating, Pigweed
[17] = post-emergence, Postemergence, visual rating after approx. 10 d, 0 to 100 scale (0 no effect, 100 complete control), read-out: Plant response rating, Kochia
[18] = post-emergence, Postemergence, 0 is no effect, 100 is complete control, read-out: Kochia plant response rating
[19] = pre-emergence, Preemergence, 0 to 100 scale where 0 is no effect and 100 is complete control, read-out: Kochia plant response rating
[20] = pre-emergence, Preemergence, 0 no effect, 100 complete control, read-out: Plant response rating, Kochia

Cc1ccc2oc(C)c(-c3c(OC(=O)C(C)(C)C)c(C)nn(C)c3=O)c2c1 [Compound 17, 5-(2,5-dimethyl-3-benzofuranyl)-1,6-dihydro-1,3-dimethyl-6-oxo-4-pyridazinyl 2,2-dimethylpropanoate]
pest or weed control at 125 g/ha [1, 5]: 0%
pest or weed control at 500 g/ha [1, 6]: 0%
pest or weed control at 125 g/ha [1, 7]: 0%
pest or weed control at 500 g/ha [1, 8]: 10%
pest or weed control at 125 g/ha [2, 9]: 0%
pest or weed control at 500 g/ha [2, 10]: 0%
pest or weed control at 125 g/ha [2, 11]: 0%
pest or weed control at 500 g/ha [2, 12]: 0%
pest or weed control at 125 g/ha [3, 13]: 0%
pest or weed control at 500 g/ha [3, 14]: 0%
pest or weed control at 125 g/ha [3, 15]: 0%
pest or weed control at 500 g/ha [3, 16]: 0%
plant injury at 125 g/ha [4]: 0%
plant injury at 500 g/ha [4]: 0%
pest or weed control at 125 g/ha (kochia (Kochia scoparia); [17]): 0%
pest or weed control at 500 g/ha (kochia (Kochia scoparia); [18]): 0%
pest or weed control at 125 g/ha (kochia (Kochia scoparia); [19]): 0%
pest or weed control at 500 g/ha (kochia (Kochia scoparia); [20]): 0%

Cc1cc(C)c2oc(C)c(-c3c(OC(=O)C(C)(C)C)c(C)nn(C)c3=O)c2c1 [Compound 18, 1,6-dihydro-1,3-dimethyl-6-oxo-5-(2,5,7-trimethyl-3-benzofuranyl)-4-pyridazinyl 2,2-dimethylpropanoate]
pest or weed control at 125 g/ha [1, 5]: 0%
pest or weed control at 500 g/ha [1, 6]: 0%
pest or weed control at 125 g/ha [1, 7]: 0%
pest or weed control at 500 g/ha [1, 8]: 0%
pest or weed control at 125 g/ha [2, 9]: 0%
pest or weed control at 500 g/ha [2, 10]: 20%
pest or weed control at 125 g/ha [2, 11]: 0%
pest or weed control at 500 g/ha [2, 12]: 0%
pest or weed control at 125 g/ha [3, 13]: 0%
pest or weed control at 500 g/ha [3, 14]: 0%
pest or weed control at 125 g/ha [3, 15]: 0%
pest or weed control at 500 g/ha [3, 16]: 0%
plant injury at 125 g/ha [4]: 0%
plant injury at 500 g/ha [4]: 0%
pest or weed control at 125 g/ha (kochia (Kochia scoparia); [17]): 0%
pest or weed control at 500 g/ha (kochia (Kochia scoparia); [18]): 0%
pest or weed control at 125 g/ha (kochia (Kochia scoparia); [19]): 0%
pest or weed control at 500 g/ha (kochia (Kochia scoparia); [20]): 0%
